Measured values as given in patent US20030186943A1, “Substituted gamma-phenyl-delta-lactams and uses related thereto” (Inflazyme Pharmaceuticals Ltd., priority 1998, published 2003).
Like-named read-outs stand apart in the source and are kept apart here.

What was measured:
PDE 5 (human platelets) = target: T1, PDE 5 (human platelets) (Homo sapiens, UniProt O76074); assay: PDE isozyme specificity: PDE 5; type: biochemical; details: for inhibition at 100 µM: read-out: % inhibition by 100 μM test compound 1-25, PDE5, X marks this range
T1 construct: PDE's for the various assays were partially purified from the following cells/tissues; tissue MDS Panlabs (assay service); host or cells: human platelets
From the text: (§1) Compound 12 was screened for activity against 5 of the major classes of mammalian cyclic nucleotide phosphodiesterase (termed PDE 1 through 5). PDE's 1 through 4 utilize cAMP as substrate while PDE 5 uses cGMP. The broad specificity PDE inhibitor 3-isobutyl-1-methylxanthine (IBMX; Sigma; Catalogue No. 17018)) was used as a positive control in all assays. PDE's for the various assays were partially purified from the following cells/tissues; PDE 1 (bovine heart), PDE 2 (human platelets), PDE 3 (human platelets), PDE 4 (human promonocytic U937 cells) and PDE 5 (human platelets).
(§2) Test compounds (at 100 μM) were screened for activity against PDE 1,2 and 5, using standard biochemical methods performed at MDS Panlabs (Bothell, Wash., USA). The broad specificity PDE inhibitor 3-isobutyl-1-methylxanthine (IBMX) was used as a positive control in all assays. PDE's for the various assays were partially purified from the following cells/tissues; PDE 1 (bovine heart), PDE 2 (human platelets) and PDE 5 (human platelets). For purposes of comparison, the effects on PDE3 (human platelets) and PDE4 (human U937 monocytic cell line) described above are presented again in Table 12.

PDE 2 (human platelets) = target: T2, PDE 2 (human platelets) (Homo sapiens, UniProt O00408); assay: PDE isozyme specificity: PDE 2; type: biochemical; details: for inhibition at 100 µM: PDE2, X marks this range
T2 construct: PDE's for the various assays were partially purified from the following cells/tissues; tissue MDS Panlabs (assay service); host or cells: human platelets
From the text: as §1, §2

[1] = tested on: Resiniferitoxin-induced mouse ear edema; assay: Resiniferitoxin-induced mouse ear edema; type: in vivo; details: Mus musculus, CD1 mice; for inhibition in vivo at 100 mg/kg: ip, intraperitoneal administration; for inhibition in vivo at 10 mg/kg: oral administration; for inhibition in vivo at 50 µg/ear: topical administration, 50 μg/ear, RTX 0.1 μg/ear
From the text: One of the primary characteristics of inflammation is an increase in vascular dilation and permeability leading to the extravasation of, and collection of fluids in, the interstitium, resulting in redness and swelling. Rheumatoid arthritis in particular is characterized by pronounced edema of affected joints resulting in significant pain and stiffness. The mouse ear inflammation model is a standard in vivo assay for inflammation that is based on an increase in ear weight which is attributable to edema induced by inflammatory mediators. RTX (resiniferitoxin; Sigma; Catalogue No. R 8756)) is a diterpene isolated from the plant Euphorbia poisonii and is an ultrapotent analog of capsaicin. RTX acts by selectively stimulating nociceptive and thermal-sensitive nerve ending in tissue, eliciting neurogenic edema. Compounds of the present invention, whether administered topically, intraperitoneally or orally, inhibited development of edema induced by topical application of RTX.
Mice (CD1, Charles River Laboratories) were separated into groups (n—5−8) and tagged. Control mice had RTX (0.1 μg/ear) applied topically to the inner and outer sides of the left ear and vehicle applied to the right ear as a control. For topical administration, experimental/treatment mice received RTX+test compound solution (50 μg/ear) on the left ear and acetone on the right ear. For intraperitoneal (i.p.) administration, 100 mg/kg test compound dissolved in 100 μL PEG 200:saline (1:1) was injected followed by a 30 minute waiting period then the standard 30 minute RTX edema induction. For oral (p.o.) administration, 10 mg/kg test compound in 100 μL PEG-200 was given to animals, then edema induced using 0.1 μg/ear RTX after a 1.5 hour waiting period. After edema induction, mice were sacrificed, and a standard disc of ear tissue was removed. Each disk of tissue was immediately weighed to the nearest 1/10th of a mg. Data were analyzed by taking the difference of each left ear from the right ear, calculating the mean+/−SEM. Statistical significance was tested by 2-sample t-test on the left/right ear weight differences of the control group vs. the experimental group.

PDE 1 (bovine heart) = PDE 1 (bovine heart) (Bos taurus, UniProt P14100); assay: PDE isozyme specificity: PDE 1; type: biochemical
From the text: as §1, §2

[2] = tested on: tail skin allograft rejection (C57BL/6 donor, BALB/c recipient mice); assay: Murine tail skin allograft transplantation model; type: in vivo, mouse; details: 10 mg/kg i.p. twice daily; for Average graft survival: from one day prior to and for 15 days after transplantation; for # grafts surviving beyond 16 days p.t.: five mice per group
Description: Tail skin from donor H-2 b C57BL/6 mice was transplanted onto recipient female H-2^d BALB/c mice (Lagodzinski, Z. et al., Immunology 71:148-150 (1990)). Five mice were included per group. […] Test compounds and CsA were administered twice daily intraperitoneally at a dose of 10 mg/kg beginning at one day prior to transplantation and for 15 days after transplantation, including the day of transplantation. Mice were monitored and scored daily over 15 days post transplantation for graft rejection.
Skin allograft rejection is primarily mediated by T lymphocytes with little evidence for a major role of antibodies under most circumstances. Skin allograft rejection requires the activation of helper and cytotoxic effector T cell populations. Graft rejection was assessed by monitoring allograft necrosis. Because tail skin is visibly distinct from the surrounding trunk skin of the mouse, the course of rejection can be easily monitored. Fully intact grafts were scored as 100%. Complete graft rejection was defined as >90% graft necrosis. Acute graft rejection generally proceeds via a series of visually obvious events beginning with swelling and erythema of the graft. These events are followed by graft desiccation and scab formation over most or all of the graft, signaling the loss of the viable graft tissue. Scab formation is subsequently followed by shrinkage and scar formation.

[3] = read-out: % inhibition by 100 μM test compound 50-75, PDE1, X marks this range
[4] = read-out: % inhibition by 100 μM test compound 25-50

T2 sequence (O00408 whole entry): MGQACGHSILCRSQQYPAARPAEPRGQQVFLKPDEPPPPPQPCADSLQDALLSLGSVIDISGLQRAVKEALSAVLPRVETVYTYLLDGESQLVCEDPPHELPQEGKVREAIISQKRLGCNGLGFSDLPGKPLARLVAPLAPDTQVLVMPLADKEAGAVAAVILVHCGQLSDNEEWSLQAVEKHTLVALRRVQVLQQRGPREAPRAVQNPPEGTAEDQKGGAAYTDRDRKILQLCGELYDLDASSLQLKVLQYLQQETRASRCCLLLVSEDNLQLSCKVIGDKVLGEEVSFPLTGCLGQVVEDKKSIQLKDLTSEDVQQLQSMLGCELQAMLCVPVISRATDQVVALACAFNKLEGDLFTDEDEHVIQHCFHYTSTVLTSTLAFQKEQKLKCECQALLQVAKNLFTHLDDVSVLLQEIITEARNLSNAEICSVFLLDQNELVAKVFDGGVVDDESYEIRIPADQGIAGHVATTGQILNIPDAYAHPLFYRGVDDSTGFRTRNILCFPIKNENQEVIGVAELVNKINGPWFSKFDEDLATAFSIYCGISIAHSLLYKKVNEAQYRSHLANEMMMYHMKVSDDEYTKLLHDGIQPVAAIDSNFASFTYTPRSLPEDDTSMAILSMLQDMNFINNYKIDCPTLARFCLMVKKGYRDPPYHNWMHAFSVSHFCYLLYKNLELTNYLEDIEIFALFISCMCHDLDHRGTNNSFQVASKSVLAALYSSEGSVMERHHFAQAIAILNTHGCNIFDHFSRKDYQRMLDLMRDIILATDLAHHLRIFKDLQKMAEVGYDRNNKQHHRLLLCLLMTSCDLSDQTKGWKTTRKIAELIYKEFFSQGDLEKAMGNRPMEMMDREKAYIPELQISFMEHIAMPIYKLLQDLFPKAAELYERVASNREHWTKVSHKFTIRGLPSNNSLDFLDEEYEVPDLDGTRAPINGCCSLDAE
Sequence of PDE 1 (bovine heart) (P14100 35-530): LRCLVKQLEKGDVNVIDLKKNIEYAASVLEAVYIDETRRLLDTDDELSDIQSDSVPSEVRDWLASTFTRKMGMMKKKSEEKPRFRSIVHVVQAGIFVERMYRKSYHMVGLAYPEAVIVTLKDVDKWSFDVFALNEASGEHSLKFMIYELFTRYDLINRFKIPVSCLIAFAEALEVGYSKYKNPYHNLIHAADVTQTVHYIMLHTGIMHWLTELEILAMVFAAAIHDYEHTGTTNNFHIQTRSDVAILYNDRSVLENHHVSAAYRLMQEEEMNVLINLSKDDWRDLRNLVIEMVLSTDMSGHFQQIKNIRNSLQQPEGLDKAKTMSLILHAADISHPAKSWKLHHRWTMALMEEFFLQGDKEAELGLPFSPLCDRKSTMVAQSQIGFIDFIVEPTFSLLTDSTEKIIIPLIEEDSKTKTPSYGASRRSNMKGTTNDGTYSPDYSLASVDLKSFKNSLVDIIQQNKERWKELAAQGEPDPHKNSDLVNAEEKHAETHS

| SMILES | inhibition at 100 µM (PDE 5 (human platelets)) | inhibition in vivo at 100 mg/kg [1] | inhibition in vivo at 50 µg/ear [1] | Average graft survival [2] | Allograft survival rate (% at 9 days post-transplant) [2] | # grafts surviving beyond 16 days p.t. [2] | also measured |
| --- | --- | --- | --- | --- | --- | --- | --- |
| COc1cc(CC2C[C@@H](c3ccc(OC)c(OC4CCCC4)c3)COC2=O)ccc1O (stereo partly shown) [Compound 43] | 1 to 25% | 72% | 98% | – | – | – | inhibition at 100 µM (PDE 2 (human platelets); read-out: % inhibition by 100 μM test compound 50-75): 50 to 75%; inhibition in vivo at 10 mg/kg [1]: 45%; inhibition at 100 µM (PDE 1 (bovine heart); [3]): 50 to 75% |
| COc1ccc([C@H]2CNC(=O)C(Cc3ccc(OCc4ccccc4)c(OC)c3)C2)cc1OC (stereo partly shown) [Compound 54] | – | – | – | 11.5 ± 3.3 days | 75% | 0 | – |
| COc1cc(CC2C[C@@H](c3ccc(OC)c(OC4CCCC4)c3)CNC2=O)ccc1O (stereo partly shown) [Compound 62] | – | – | – | – | – | – | inhibition in vivo at 10 mg/kg [1]: 30% |
| COc1ccc(C2CNC(=O)C2)cc1OC1CCCC1 (stereo not shown) [Rolipram, reference compound] | – | – | – | 11.5 ± 3.7 days | 50% | 1 | – |
| COc1cc(C[C@@H]2CC(c3ccc(OC)c(OC)c3)COC2=O)ccc1O (mixture of isomers) [Compound 12] | 1 to 25% | 61% | 85% | – | – | – | inhibitory effect on PDE 5 (PDE 5 (human platelets); human platelets, cGMP substrate): no significant inhibitory effects; inhibitory effect on PDE 2 (PDE 2 (human platelets); human platelets): no significant inhibitory effects; inhibition at 100 µM (PDE 2 (human platelets); [4]): 25 to 50%; inhibition at 100 µM (PDE 1 (bovine heart); [3]): 50 to 75% |
| COc1cc(C[C@@H]2C[C@@H](c3ccc(OC)c(OC)c3)COC2=O)ccc1O [Compound 30] | – | 28% | 98% | – | – | – | – |
| COc1ccc([C@@H]2CCC(=O)OC2)cc1OC1CCCC1 [Compound 41] | 1 to 25% | – | – | 11.6 ± 4.6 days | 60% | 1 | inhibition at 100 µM (PDE 2 (human platelets); [4]): 25 to 50%; inhibition at 100 µM (PDE 1 (bovine heart); read-out: % inhibition by 100 μM test compound 1-25, PDE1, X marks this range): 1 to 25% |
